In patent publication US7875647B2, “Heteroaryl-pyrazole derivatives as cannabinoid CB1 receptor antagonists” (Green Cross Corporation, priority 2006, dated 2011) one finds IC50 data, which are given here for 13 compounds.

The target of the test is T1, Cannabinoid-1 receptor (CB1R) (Rattus norvegicus, UniProt P20272).
T1 construct: The tissue obtained from the brain of SD rats was homogenized; from tissue; host or cells: brain of SD rats (membrane pellet of the homogenate)
The test is described as follows: Cannabinoid-1 receptor (CB1R) binding affinity assay ([3H]CP-55940, rat CB-1 receptor binding protocol). To be noted: brain tissue of SD rats, [3H]CP-55940, 30° C. 60 min.

Where two headings read alike, the source gives them in different places.

T1 sequence (P20272 whole entry): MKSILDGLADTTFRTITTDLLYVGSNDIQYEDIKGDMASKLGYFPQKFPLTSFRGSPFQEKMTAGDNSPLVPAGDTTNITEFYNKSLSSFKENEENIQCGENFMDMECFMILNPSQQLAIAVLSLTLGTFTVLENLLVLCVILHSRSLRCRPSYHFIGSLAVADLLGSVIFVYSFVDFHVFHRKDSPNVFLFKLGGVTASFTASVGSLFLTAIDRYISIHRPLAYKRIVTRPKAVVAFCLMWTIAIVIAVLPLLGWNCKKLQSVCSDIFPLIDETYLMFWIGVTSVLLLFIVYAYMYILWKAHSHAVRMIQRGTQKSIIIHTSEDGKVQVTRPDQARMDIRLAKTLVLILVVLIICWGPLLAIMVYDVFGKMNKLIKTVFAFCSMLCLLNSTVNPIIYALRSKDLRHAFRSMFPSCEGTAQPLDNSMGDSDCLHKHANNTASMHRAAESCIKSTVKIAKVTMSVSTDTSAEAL

Turning to `CC(C)(C)c1nnc(-c2nn(-c3ccc(Cl)cc3Cl)c(-c3ccc(Br)cc3)c2Cn2cncn2)o1` [Example 329, 2-(4-((1H-1,2,4-triazol-1-yl)methyl)-5-(4-bromophenyl)-1-(2,4-dichlorophenyl)-1H-pyrazol-3-yl)-5-tert-butyl-1,3,4-oxadiazole], the IC50 (read-out: IC50) is 2.75 nM. As to `CCc1c(-c2nnc(C3CCC3)s2)nn(-c2ccc(Cl)cc2Cl)c1-c1ccc(Br)cc1` [Example 375, 2-(5-(4-Bromophenyl)-1-(2,4-dichlorophenyl)-4-ethyl-1H-pyrazol-3-yl)-5-cyclobutyl-1,3,4-thiadiazole], for the setting “read-out: IC50”, the IC50 came to 18.5 nM. `CCCCC(C)c1nnc(-c2nn(-c3ccccc3Cl)c(-c3ccc(Cl)cc3)c2C)s1` (stereo not shown) [Example 411, 2-(1-(2-chlorophenyl)-5-(4-chlorophenyl)-4-methyl-1H-pyrazol-3-yl)-5-(hexan-2-yl)-1,3,4-thiadiazole] had an IC50 (IC50(nM)) of 13.5 nM.

`Cc1c(-c2nnnn2C2CC2)nn(-c2ccc(Cl)cc2Cl)c1-c1ccc(Cl)cc1` [Example 599, 5-(5-(4-Chlorophenyl)-1-(2,4-dichlorophenyl)-4-methyl-1H-pyrazol-3-yl)-1-cyclopropyl-1H-tetrazole]: the IC50 (read-out: IC50) came to 181 nM. `C=Cc1c(-c2nnc(C(C)(C)C)s2)nn(-c2ccc(Cl)cc2Cl)c1-c1ccc(Br)cc1` [Example 531, 2-(5-(4-bromophenyl)-1-(2,4-dichlorophenyl)-4-vinyl-1H-pyrazol-3-yl)-5-tert-butyl-1,3,4-thiadiazole]: the IC50 (read-out: IC50) amounted to 20.6 nM.

Take `Cc1c(-c2nnc(C(C)(C)C)s2)nn(-c2ccc(Cl)cc2Cl)c1-c1ccc(Cl)cc1` [Example 372, 2-tert-Butyl-5-(5-(4-chlorophenyl)-1-(2,4-dichlorophenyl)-4-methyl-1H-pyrazol-3-yl)-1,3,4-thiadiazole]: the IC50 (read-out: IC50) came to 25.2 nM.

On to `CC(=O)c1c(-c2nnc(C(C)(C)C)s2)nn(-c2ccc(Cl)cc2Cl)c1-c1ccc(Br)cc1` [Example 533, 1-(5-(4-bromophenyl)-3-(5-tert-butyl-1,3,4-thiadiazol-2-yl)-1-(2,4-dichlorophenyl)-1H-pyrazol-4-yl)ethanone], for which the IC50 (read-out: IC50) turned out to be 6.03 nM. In the case of `CCc1c(-c2nnc(C3CCCC3)s2)nn(-c2ccc(Cl)cc2Cl)c1-c1ccc(Cl)cc1` [Example 396, 2-(5-(4-chlorophenyl)-1-(2,4-dichlorophenyl)-4-ethyl-1H-pyrazol-3-yl)-5-cyclopentyl-1,3,4-thiadiazole], the IC50 (read-out: IC50) was 9.94 nM. Consider `Cc1c(-c2nnc(C3(c4ccc(Cl)cc4)CC3)o2)nn(-c2ccc(Cl)cc2)c1-c1ccc(Cl)cc1` [Example 119, 2-(1,5-Bis(4-chlorophenyl)-4-methyl-1H-pyrazol-3-yl)-5-(1-(4-chlorophenyl)cyclopropyl)-1,3,4-oxadiazole], for which the IC50 (read-out: IC50) turned out to be 550 nM. On to `Cc1c(-c2nc(C3CCCC3)n(C)n2)nn(-c2ccc(Cl)cc2Cl)c1-c1ccc(Cl)cc1` [Example 623, 3-(5-(4-chlorophenyl)-1-(2,4-dichlorophenyl)-4-methyl-1H-pyrazol-3-yl)-5-cyclopentyl-1-methyl-1H-1,2,4-triazole], for which the IC50 (read-out: IC50) was determined as 368 nM.

Regarding `C=Cc1c(-c2nnc(C(C)(C)C)o2)nn(-c2ccc(Cl)cc2Cl)c1-c1ccc(Cl)cc1` [Example 227, 2-tert-butyl-5-(5-(4-chlorophenyl)-1-(2,4-dichlorophenyl)-4-vinyl-1H-pyrazol-3-yl)-1,3,4-oxadiazole], the IC50 (read-out: IC50) was determined as 16.9 nM. In the case of `CC(=O)OCc1c(-c2nnc(C3(c4ccc(Cl)cc4)CC3)o2)nn(-c2ccc(Cl)cc2Cl)c1-c1ccc(Cl)cc1` [Example 197, (5-(4-chlorophenyl)-3-(5-(1-(4-chlorophenyl)cyclopropyl)-1,3,4-oxadiazol-2-yl)-1-(2,4-dichlorophenyl)-1H-pyrazol-4-yl)methyl acetate], the IC50 (IC50(nM)) amounted to 7.07 nM. For `CC(=O)OCc1c(-c2nnc(C(C)(C)C)s2)nn(-c2ccc(Cl)cc2Cl)c1-c1ccc(Br)cc1` [Example 520, (5-(4-bromophenyl)-3-(5-tert-butyl-1,3,4-thiadiazol-2-yl)-1-(2,4-dichlorophenyl)-1H-pyrazol-4-yl)methyl acetate], for the setting “read-out: IC50”, the half-maximal inhibitory concentration (IC50) was determined as 9.01 nM.

Broadly, the IC50 is the concentration at which inhibition is half-maximal.
